Experimental data as given in PMC13104650 (Acta Pharmaceutica Sinica. B, 2025).

Target: T1, TXNRD1 (cytosolic thioredoxin reductase 1) (Rattus norvegicus, UniProt O89049)
T1 sequence (O89049 1-499): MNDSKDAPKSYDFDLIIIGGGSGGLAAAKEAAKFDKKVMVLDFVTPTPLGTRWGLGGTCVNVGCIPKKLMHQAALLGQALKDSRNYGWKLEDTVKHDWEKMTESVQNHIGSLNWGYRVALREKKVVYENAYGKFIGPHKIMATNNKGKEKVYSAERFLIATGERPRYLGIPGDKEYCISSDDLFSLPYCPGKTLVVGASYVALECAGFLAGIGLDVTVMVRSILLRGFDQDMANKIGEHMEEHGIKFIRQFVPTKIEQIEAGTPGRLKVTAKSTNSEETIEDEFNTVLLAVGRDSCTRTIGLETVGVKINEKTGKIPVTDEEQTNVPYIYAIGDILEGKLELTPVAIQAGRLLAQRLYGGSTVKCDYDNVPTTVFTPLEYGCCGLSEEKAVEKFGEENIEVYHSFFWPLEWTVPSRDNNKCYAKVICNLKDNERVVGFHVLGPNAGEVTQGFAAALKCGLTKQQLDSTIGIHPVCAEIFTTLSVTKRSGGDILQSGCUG
Assay: ITC
Type: binding

Kd: 83.9 nM
SMILES: C=C1C(=O)O[C@@H]2C[C@@]3(C)CCCC(=C)[C@@H]3C[C@H]12 [IAL, Isoalantolactone]
